Measurements taken from ChEMBL document CHEMBL1201862, “PubChem BioAssay data set” (2004).
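Dose response: 5 concentrations. Exposure: 48 h. Format: 96-well plates. Endpoint: linear interpolation; highest concentration if not reached. Here, GI50 denotes the concentration required for 50% inhibition of growth.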 The source made the active and inactive calls. No stated cut-off is given here; in the data, active = GI50 up to about 1.1 µM and inactive = higher.

Columns and labels:
Assay in all cases: NCI anticancer screen, dose series, 48 h
786-0 = tested on: 786-0
OVCAR-4 = tested on: OVCAR-4
NCI-H522 = tested on: NCI-H522
SNB-19 = tested on: SNB-19
M14 = tested on: M14
COLO 205 = tested on: COLO 205
A498 = tested on: A498
NCI/ADR-RES = tested on: NCI/ADR-RES
A549 = tested on: A549
SN12C = tested on: SN12C
Hs-578T = tested on: Hs-578T
SF-539 = tested on: SF-539
SF-268 = tested on: SF-268
SNB-75 = tested on: SNB-75
HCT-116 = tested on: HCT-116
U-251 = tested on: U-251
T47D = tested on: T47D
RPMI-8226 = tested on: RPMI-8226
OVCAR-3 = tested on: OVCAR-3
UACC-62 = tested on: UACC-62
SK-MEL-5 = tested on: SK-MEL-5
MDA-N = tested on: MDA-N
DU-145 = tested on: DU-145
HOP-92 = tested on: HOP-92
MDA-MB-435 = tested on: MDA-MB-435
HCT-15 = tested on: HCT-15
BT-549 = tested on: BT-549
SW-620 = tested on: SW-620
NCI-H460 = tested on: NCI-H460
ACHN = tested on: ACHN
NCI-H23 = tested on: NCI-H23
SR = tested on: SR
PC-3 = tested on: PC-3
KM12 = tested on: KM12
OVCAR-5 = tested on: OVCAR-5
MOLT-4 = tested on: MOLT-4
SK-MEL-28 = tested on: SK-MEL-28
K562 = tested on: K562
SK-OV-3 = tested on: SK-OV-3
IGROV-1 = tested on: IGROV-1
MCF7 = tested on: MCF7
HOP-62 = tested on: HOP-62
EKVX = tested on: EKVX
MDA-MB-231 = tested on: MDA-MB-231
RXF 393 = tested on: RXF 393
CAKI-1 = tested on: CAKI-1
SF-295 = tested on: SF-295
SK-MEL-2 = tested on: SK-MEL-2
HT-29 = tested on: HT-29
UO-31 = tested on: UO-31
UACC-257 = tested on: UACC-257
OVCAR-8 = tested on: OVCAR-8
NCI-H226 = tested on: NCI-H226
HCC 2998 = tested on: HCC 2998
TK-10 = tested on: TK-10
LOX IMVI = tested on: LOX IMVI

How did the GI50 (786-0) turn out when N#CCCN(CCC#N)c1ccc(C(/N=N/c2ccc(Cl)cc2)=N\c2ccccc2)cc1 was run?
Its GI50 is 14.9 µM (inactive).

What about the GI50 (OVCAR-4) of the same compound?
Its GI50 is 11.6 µM (inactive).

What about the GI50 (NCI-H522) of the same compound?
Its GI50 is 15.1 µM (inactive).

What about the GI50 (SNB-19) of the same compound?
The GI50 was 12.2 µM (inactive).

What about the GI50 (M14) of the same compound?
Its GI50 is 12.9 µM (inactive).

And the GI50 (COLO 205)?
The GI50 was 3.2 µM (inactive).

And the GI50 (A498)?
Its GI50 is 17.6 µM (inactive).

What about the GI50 (NCI/ADR-RES) of the same compound?
The GI50 was 10.8 µM (inactive).

And the GI50 (A549)?
Its GI50 is 14.1 µM (inactive).

What about the GI50 (SN12C) of the same compound?
Its GI50 is 18.4 µM (inactive).

And the GI50 (Hs-578T)?
Its GI50 is 18.9 µM (inactive).

What about the GI50 (SF-539) of the same compound?
The GI50 was 14.9 µM (inactive).

And the GI50 (SF-268)?
The GI50 was 13.2 µM (inactive).

And the GI50 (SNB-75)?
Its GI50 is 17.4 µM (inactive).

What about the GI50 (HCT-116) of the same compound?
The GI50 was 12.1 µM (inactive).

And the GI50 (U-251)?
The GI50 was 17.6 µM (inactive).

What about the GI50 (T47D) of the same compound?
The GI50 was 8.55 µM (inactive).

And the GI50 (RPMI-8226)?
Its GI50 is 43.6 µM (inactive).

What about the GI50 (OVCAR-3) of the same compound?
The GI50 was 9.77 µM (inactive).

What about the GI50 (UACC-62) of the same compound?
The GI50 was 6.49 µM (inactive).

And the GI50 (SK-MEL-5)?
Its GI50 is 1.24 µM (inactive).

What about the GI50 (MDA-N) of the same compound?
Its GI50 is 10.9 µM (inactive).

What about the GI50 (DU-145) of the same compound?
Its GI50 is 13.4 µM (inactive).

And the GI50 (HOP-92)?
The GI50 was 16.4 µM (inactive).

And the GI50 (MDA-MB-435)?
The GI50 was 11 µM (inactive).

What about the GI50 (HCT-15) of the same compound?
Its GI50 is 5.93 µM.

What about the GI50 (BT-549) of the same compound?
Its GI50 is 3.33 µM (inactive).

What about the GI50 (SW-620) of the same compound?
The GI50 was 18 µM (inactive).

What about the GI50 (NCI-H460) of the same compound?
Its GI50 is 7.78 µM (inactive).

And the GI50 (ACHN)?
Its GI50 is 13.4 µM (inactive).

What about the GI50 (NCI-H23) of the same compound?
Its GI50 is 12.6 µM (inactive).

What about the GI50 (SR) of the same compound?
The GI50 was 16 µM (inactive).

And the GI50 (PC-3)?
Its GI50 is 12.6 µM (inactive).

What about the GI50 (KM12) of the same compound?
The GI50 was 11.4 µM (inactive).

What about the GI50 (OVCAR-5) of the same compound?
Its GI50 is 12.4 µM (inactive).

What about the GI50 (MOLT-4) of the same compound?
Its GI50 is 22.7 µM (inactive).

And the GI50 (SK-MEL-28)?
The GI50 was 15.3 µM (inactive).

And the GI50 (K562)?
The GI50 was 41.7 µM (inactive).

And the GI50 (SK-OV-3)?
The GI50 was 13.2 µM (inactive).

And the GI50 (IGROV-1)?
The GI50 was 11.7 µM (inactive).

What about the GI50 (MCF7) of the same compound?
The GI50 was 11.7 µM (inactive).

What about the GI50 (HOP-62) of the same compound?
The GI50 was 13.2 µM (inactive).

What about the GI50 (EKVX) of the same compound?
The GI50 was 12.1 µM (inactive).

What about the GI50 (MDA-MB-231) of the same compound?
The GI50 was 18.1 µM (inactive).

What about the GI50 (RXF 393) of the same compound?
Its GI50 is 15.4 µM (inactive).

What about the GI50 (CAKI-1) of the same compound?
The GI50 was 12.2 µM (inactive).

What about the GI50 (SF-295) of the same compound?
The GI50 was 1.06 µM (active).

What about the GI50 (SK-MEL-2) of the same compound?
The GI50 was 2.09 µM (inactive).

What about the GI50 (HT-29) of the same compound?
Its GI50 is 17.9 µM (inactive).

What about the GI50 (UO-31) of the same compound?
The GI50 was 8.91 µM (inactive).

What about the GI50 (UACC-257) of the same compound?
Its GI50 is 7.83 µM (inactive).

And the GI50 (OVCAR-8)?
The GI50 was 15.1 µM (inactive).

What about the GI50 (NCI-H226) of the same compound?
The GI50 was 16 µM (inactive).

What about the GI50 (HCC 2998) of the same compound?
Its GI50 is 6.55 µM (inactive).

And the GI50 (TK-10)?
Its GI50 is 15.5 µM (inactive).

O=C1c2cc([N+](=O)[O-])ccc2NC2C(O)c3ccccc3N12 (centres undefined) was tested. Which GI50 (786-0) did it give?
Its GI50 is 25.2 µM (inactive).

And the GI50 (OVCAR-4)?
The GI50 was 19.7 µM (inactive).

What about the GI50 (NCI-H522) of the same compound?
Its GI50 is 16.2 µM (inactive).

And the GI50 (SNB-19)?
The GI50 was 29 µM (inactive).

What about the GI50 (M14) of the same compound?
Its GI50 is 47.4 µM (inactive).

What about the GI50 (COLO 205) of the same compound?
Its GI50 is 61.8 µM (inactive).

What about the GI50 (A498) of the same compound?
Its GI50 is 18.3 µM (inactive).

What about the GI50 (NCI/ADR-RES) of the same compound?
Its GI50 is 23.5 µM (inactive).

What about the GI50 (A549) of the same compound?
The GI50 was 35.7 µM (inactive).

And the GI50 (SN12C)?
Its GI50 is 48.9 µM (inactive).

And the GI50 (Hs-578T)?
The GI50 was 0.706 µM (active).

And the GI50 (SF-539)?
The GI50 was 29.3 µM (inactive).

What about the GI50 (SF-268) of the same compound?
Its GI50 is 27.2 µM (inactive).

And the GI50 (SNB-75)?
The GI50 was 20.2 µM (inactive).

What about the GI50 (HCT-116) of the same compound?
Its GI50 is 30.8 µM (inactive).

What about the GI50 (U-251) of the same compound?
The GI50 was 23.5 µM (inactive).

What about the GI50 (T47D) of the same compound?
Its GI50 is 14.2 µM (inactive).

What about the GI50 (RPMI-8226) of the same compound?
Its GI50 is 18.5 µM (inactive).

And the GI50 (OVCAR-3)?
Its GI50 is 20.4 µM (inactive).

What about the GI50 (UACC-62) of the same compound?
Its GI50 is 3.45 µM (inactive).

What about the GI50 (SK-MEL-5) of the same compound?
The GI50 was 38 µM (inactive).

And the GI50 (MDA-N)?
The GI50 was 69.5 µM (inactive).

And the GI50 (DU-145)?
The GI50 was 9.55 µM (inactive).

What about the GI50 (HOP-92) of the same compound?
Its GI50 is 23.9 µM (inactive).

And the GI50 (MDA-MB-435)?
Its GI50 is 52.8 µM (inactive).

And the GI50 (HCT-15)?
The GI50 was 29.3 µM.

What about the GI50 (BT-549) of the same compound?
Its GI50 is 22.8 µM (inactive).

And the GI50 (NCI-H460)?
Its GI50 is 26.4 µM (inactive).

What about the GI50 (ACHN) of the same compound?
Its GI50 is 24.7 µM (inactive).

And the GI50 (NCI-H23)?
Its GI50 is 24.3 µM (inactive).

And the GI50 (SR)?
The GI50 was 19.3 µM (inactive).

What about the GI50 (PC-3) of the same compound?
Its GI50 is 53 µM (inactive).

And the GI50 (KM12)?
Its GI50 is 42.7 µM (inactive).

And the GI50 (OVCAR-5)?
The GI50 was > 100 µM (inactive).

What about the GI50 (MOLT-4) of the same compound?
The GI50 was 19.7 µM (inactive).

And the GI50 (K562)?
Its GI50 is 22.2 µM (inactive).

And the GI50 (SK-OV-3)?
Its GI50 is 17.7 µM (inactive).

What about the GI50 (IGROV-1) of the same compound?
Its GI50 is 24.9 µM (inactive).

And the GI50 (MCF7)?
The GI50 was 17.3 µM (inactive).

And the GI50 (HOP-62)?
The GI50 was 30.1 µM (inactive).

What about the GI50 (EKVX) of the same compound?
Its GI50 is 0.619 µM (active).

And the GI50 (MDA-MB-231)?
Its GI50 is 31.6 µM (inactive).

What about the GI50 (RXF 393) of the same compound?
Its GI50 is 16.9 µM (inactive).

What about the GI50 (CAKI-1) of the same compound?
Its GI50 is 21.6 µM (inactive).

And the GI50 (SF-295)?
Its GI50 is 30.1 µM (inactive).

What about the GI50 (SK-MEL-2) of the same compound?
Its GI50 is 33.3 µM (inactive).

What about the GI50 (HT-29) of the same compound?
The GI50 was 80.4 µM (inactive).

And the GI50 (UO-31)?
The GI50 was 25.9 µM (inactive).

What about the GI50 (UACC-257) of the same compound?
The GI50 was 16 µM (inactive).

What about the GI50 (LOX IMVI) of the same compound?
The GI50 was 43.8 µM (inactive).

What about the GI50 (OVCAR-8) of the same compound?
The GI50 was 23.3 µM (inactive).

And the GI50 (NCI-H226)?
The GI50 was 29.2 µM (inactive).

And the GI50 (HCC 2998)?
The GI50 was 47.9 µM (inactive).

And the GI50 (TK-10)?
The GI50 was 13.2 µM (inactive).
